Experimental data from patent US11542263B2 (NeuroCycle Therapeutics, Inc., priority 2018, dated 2023).

Legend:
[1] = Intrinsic dissolution rate in SGF; format: physicochemical; details: 37° C., 100 rpm, linear scope within 2 to 120 min
Protocol: About 100 mg of Free Base Polymorphic Form A or Phosphate Polymorphic Form A was weighed into the intrinsic dissolution apparatus and the sample compressed for 1 minute with a compression force of ˜4 MPa to form a compacted pellet within the stainless-steel die. All loose powder was removed from the surface of the die. The intrinsic dissolution shaft was connected with the stainless-steel die and tightened so only one surface of the pellet was exposed (surface area=0.496 cm^2). The shaft in the spindle was adjusted to ensure the exposed surface of the compacted tablet was ˜3.8 cm from the bottom of the vessel when lowered. The temperature of chamber water was set at 37° C.±0.5° C., the shaft rotation at 100 rpm and the sampling time points at 2, 5, 10, 15, 30, 45, 60, 120 min. SGF was used as dissolution medium (900 mL). At each time point, solution samples were filtered, and the supernatant was analyzed by HPLC-UV.

[2] = Accelerated stability testing (HPLC assay and purity); format: physicochemical; details: for Assay (%): assay criterion 95%-105%
Protocol: The stability of Phosphate Polymorphic Form and Free Base Polymorphic Form A were evaluated under accelerated conditions.
Appropriately 2 mg of compounds were accurately weighed into a glass vial, then added diluents (ACN/water, 50/50) and sonicated for 2 minutes to dilute the target concentration of 0.2 mg/mL. The solution was equilibrated to room temperature and then the purity of the compounds was determined by HPLC.

Pharmacokinetics in rats = format: in vivo, Sprague-dawley rats; details: rat, mean
Protocol: To evaluate the pharmacokinetics (PK) of Phosphate Polymorphic Form A, suspensions or solutions were dosed by either oral gavage (0.5% methyl cellulose) or IV (60% PEG400/40% saline) in normal, healthy, male Sprague-dawley rats with serial blood collection focused on the first 48 hours of exposure. Rats were dosed with vehicle or test compounds at 1 mg/kg (IV) or 2 mg/kg (PO). Approximately 0.2 mL blood was collected at each time point. All blood samples were collected jugular vein puncture. All blood samples were transferred into plastic microcentrifuge tubes containing 5 μL of EDTA-K2 as anti-coagulant or pre-chilled commercial EDTA-K2 tubes and placed on wet ice until centrifugation. Harvested blood samples were centrifuged within 30 min of collection at 7,000 rpm for 10 minutes. The extracts were analyzed for compound concentration by LC/MS/MS. Data were analyzed with Phoenix WinNonlin 6.3 using the IV-Noncompartmental model 201 (IV bolus input) and PO-Noncompartmental model 200 (extravascular input) methods.

Canine pharmacokinetics = format: in vivo, Beagle dogs; details: male, beagle, plasma, dog, mean
Protocol: To evaluate the pharmacokinetics (PK) Phosphate Polymorphic Form A, suspensions or solutions were dosed by either oral gavage (0.5% methyl cellulose) or IV (60% PEG400/40% saline) in normal, healthy, male Beagle dogs with serial blood collection focused on the first 48 hours of exposure. Dogs were dosed with vehicle or test compounds at 1 mg/kg (IV) or 2 mg/kg (PO). Approximately 0.5 mL blood was collected at each time point. All blood samples were collected from a peripheral vein. Blood was collected into commercially available tubes (Jiangsu Kangjian medical supplies co., LTD) containing Potassium (K2) EDTA*2H2O and placed on wet ice until processed for plasma. Samples were centrifuged (3,000×g for 10 minutes at 2 to 8° C.) within one hour of collection. The extracts were analyzed for compound concentration by LC/MS/MS. Data were analyzed with Phoenix WinNonlin 6.3 using the IV-Noncompartmental model 201 (IV bolus input) and PO-Noncompartmental model 200 (extravascular input) methods.

[3] = Hygroscopicity by dynamic vapor sorption (DVS); format: physicochemical
Protocol: The hygroscopicity of Phosphate Polymorph Form A was measured by Dynamic vapor sorption (DVS). […] After DVS, XRPD confirmed that the crystalline form was retained (see FIG. 19).

[4] = Approximate solubility of TPA023B Phosphate in solvents (stepwise solvent addition); format: physicochemical; details: thermodynamic from solid
Protocol: The total amount of solvent was recorded to calculate the approximate solubility in these solvents.

[5] = male, Sprague-Dawley, plasma, IV 1 mg/kg
[6] = male, Sprague-Dawley, plasma, PO 2 mg/kg

For `CC(C)(O)c1cnn2c(-c3ccc(F)c(-c4c(F)cccc4C#N)c3)cnc2n1.O=P(O)(O)O` [Phosphate Polymorphic Form A, 2′,6-difluoro-5′-[3-(1-hydroxy-1-methylethyl)-imidazo[1,2-b][1,2,4]triazin-7-yl]biphenyl-2-carbonitrile], the intrinsic dissolution rate [1] was 0.184 mg cm^−2 min^−1, the “Purity (%)” value ([2]; 40° C./75% RH (open), 1 week) was 99.02% and the “Assay (%)” value ([2]; 40° C./75% RH (open), 1 week) was 97.12%. The “Purity (%)” value ([2]; 80° C. (open), 1 week) was 98.94%, the “Assay (%)” value ([2]; 80° C. (open), 1 week) was 95.99% and the “Purity (%)” value ([2]; Initial) was 98.91%. The “Assay (%)” value ([2]; Initial) was 104.60%, the “Purity (%)” value ([2]; Light, ~50 h) was 97.55% and the “Assay (%)” value ([2]; Light, ~50 h) was 95.25%. The AUC(0-inf) (Pharmacokinetics in rats; [5]) was 12100 ng·h/mL, the AUC(0-t) (Pharmacokinetics in rats; [5]) was 11300 ng·h/mL and the clearance (Pharmacokinetics in rats; [5]) was 1.41 mL/min/kg. It also gave a half-life (Pharmacokinetics in rats; [5]) of 12.4 h, a Vd (Pharmacokinetics in rats; male, Sprague-Dawley, plasma, IV 1 mg/kg, read-out: Vdss) of 1.49 L/kg and an AUC(0-inf) (Pharmacokinetics in rats; [6]) of 16000 ng·h/mL. It also gave an AUC(0-t) (Pharmacokinetics in rats; [6]) of 15000 ng·h/mL, a Cmax (Pharmacokinetics in rats; [6]) of 794 ng/mL and a Tmax (Pharmacokinetics in rats; [6]) of 7 h. The bioavailability (Pharmacokinetics in rats; [6]) was 66.1%, the half-life (Pharmacokinetics in rats; [6]) was 11.1 h and the AUCExtra (Pharmacokinetics in rats; PO 2 mg/kg) was 6.25%. It also gave an AUC(0-inf) (Canine pharmacokinetics; IV 1 mg/kg) of 9170 ng·h/mL, an AUC(0-t) (Canine pharmacokinetics; IV 1 mg/kg) of 7850 ng·h/mL and a clearance (Canine pharmacokinetics; IV 1 mg/kg) of 2.52 mL/min/kg. The half-life (Canine pharmacokinetics; IV 1 mg/kg) was 12.8 h, the Vd (Canine pharmacokinetics; IV 1 mg/kg, read-out: Vdss) was 1.93 L/kg and the AUC(0-inf) (Canine pharmacokinetics; PO 2 mg/kg) was 13900 ng·h/mL. It also gave an AUC(0-t) (Canine pharmacokinetics; PO 2 mg/kg) of 11700 ng·h/mL, a Cmax (Canine pharmacokinetics; PO 2 mg/kg) of 649 ng/mL and a Tmax (Canine pharmacokinetics; PO 2 mg/kg) of 3.33 h. For the same compound, the bioavailability (Canine pharmacokinetics; PO 2 mg/kg) was 74.7%, the half-life (Canine pharmacokinetics; PO 2 mg/kg) was 12.2 h and the “reversible mass increase (hygroscopicity)” value [3] was “about 1.08%”. The solubility ([4]; aqueous with cosolvent or surfactant or cyclodextrin, Acetone/H2O (1/1, v/v), 50° C.) was 2000 to 10000 µg/mL, the solubility ([4]; aqueous with cosolvent or surfactant or cyclodextrin, Acetone/H2O (1/1, v/v), RT) was less than 2000 µg/mL and the solubility ([4]; aqueous with cosolvent or surfactant or cyclodextrin, EtOH/H2O (1/1, v/v), 50° C.) was less than 2000 µg/mL. It also gave a solubility ([4]; aqueous with cosolvent or surfactant or cyclodextrin, EtOH/H2O (1/1, v/v), RT) of less than 2000 µg/mL, a solubility ([4]; organic solvent or mixture, 1,4-Dioxane, 50° C.) of 20000 to 25000 µg/mL and a solubility ([4]; organic solvent or mixture, 1,4-Dioxane, RT) of 20000 to 25000 µg/mL. It also gave a solubility ([4]; organic solvent or mixture, Acetone, 50° C.) of less than 10000 µg/mL, a solubility ([4]; organic solvent or mixture, Acetone, RT) of 6000 to 10000 µg/mL and a solubility ([4]; organic solvent or mixture, Acetonitrile (ACN), 50° C.) of 2000 to 10000 µg/mL. For the same compound, the solubility ([4]; organic solvent or mixture, Acetonitrile (ACN), RT) was less than 2000 µg/mL, the solubility ([4]; organic solvent or mixture, DCM, 50° C.) was 10000 to 50000 µg/mL and the solubility ([4]; organic solvent or mixture, DCM, RT) was 8000 to 10000 µg/mL. The solubility ([4]; organic solvent or mixture, DMF, RT) was greater than 100000 µg/mL, the solubility ([4]; organic solvent or mixture, DMSO, RT) was greater than 100000 µg/mL and the solubility ([4]; organic solvent or mixture, EtOAc, 50° C.) was less than 2000 µg/mL. It also gave a solubility ([4]; organic solvent or mixture, EtOAc, RT) of less than 2000 µg/mL, a solubility ([4]; organic solvent or mixture, Ethanol, 50° C.) of 10000 to 50000 µg/mL and a solubility ([4]; organic solvent or mixture, Ethanol, RT) of less than 8000 µg/mL. The solubility ([4]; organic solvent or mixture, Heptane, 50° C.) was less than 2000 µg/mL, the solubility ([4]; organic solvent or mixture, Heptane, RT) was less than 2000 µg/mL and the solubility ([4]; organic solvent or mixture, Isopropanol, 50° C.) was 10000 to 50000 µg/mL. For the same compound, the solubility ([4]; organic solvent or mixture, Isopropanol, RT) was less than 8000 µg/mL, the solubility ([4]; organic solvent or mixture, MEK, 50° C.) was less than 10000 µg/mL and the solubility ([4]; organic solvent or mixture, MEK, RT) was 2000 to 4000 µg/mL. It also gave a solubility ([4]; organic solvent or mixture, MTBE, 50° C.) of less than 2000 µg/mL, a solubility ([4]; organic solvent or mixture, MTBE, RT) of less than 2000 µg/mL and a solubility ([4]; organic solvent or mixture, Methanol, 50° C.) of 10000 to 50000 µg/mL. The solubility ([4]; organic solvent or mixture, Methanol, RT) was 8000 to 10000 µg/mL, the solubility ([4]; organic solvent or mixture, THF, 50° C.) was less than 50000 µg/mL and the solubility ([4]; organic solvent or mixture, THF, RT) was 20000 to 50000 µg/mL. It also gave a solubility ([4]; organic solvent or mixture, Toluene, 50° C.) of less than 2000 µg/mL, a solubility ([4]; organic solvent or mixture, Toluene, RT) of less than 2000 µg/mL and a solubility ([4]; water, H2O, 50° C.) of less than 2000 µg/mL. The solubility ([4]; water, H2O, RT) was less than 2000 µg/mL.
